Data as given in patent US12465611B2, “Compositions and methods for treatment of depression and other disorders” (priority 2019, dated 2025).
Several values for one entry are separate records, joined by “and”; a condition that tells them apart may be missing. Identical values can stand only once. Like-named read-outs stand apart in the source and are kept apart here.

Legend:
[1] = tested on: rat heart; details: given before TCP; Dostert et al., 1994; cited from earlier work
[2] = cited from earlier work
[3] = oral tyramine with food; VanDenBerg et al., 2003; cited from earlier work
[4] = tested on: tyramine pressor effect; details: cited from earlier work
[5] = tested on: tyramine pressor effect; details: for SBP increase with 40 mg of in-meal tyramine: atomoxetine 40 mg, nortriptyline 125 mg; for Average SBP increase: 40 mg of tyramine taken with a meal, TCP 20 mg, phenelzine 60 mg, brofaromine 100 mg, moclobemide 450 mg, selegiline 20 mg
Description: Thus, wherein the MAOI and the NRI are each administered with an NRI dosage sufficient to result in a blood pressure increase of less than about 20 mm HG in reaction to consuming about 40 mg or less, about 35 mg or less, about 30 mg or less, about 25 mg or less, about 20 mg or less, about 15 mg or less, about 10 mg or less, or about 5 mg or less of tyramine within the effective plasma concentration time period.
This study is designed to characterize the effects of PHZ on the responses to tyramine throughout the dosing interval when given alone, and with an inhibitor of NET to mitigate the potentiation of the tyramine pressor effect by PHZ.

[6] = tested on: tyramine pressor effect; details: cited from earlier work; remark: listed apart in the source
[7] = Plasma concentration and pharmacokinetics of MAOIs and NRIs; details: for Average Concentration: TCP plasma
From the text: As used herein, the phrase “controlled-release formulation time period” refers to the period of time during which an active agent in the formulation is released in a delayed but controlled fashion upon administration to a subject. An objective of controlled release is to avoid bioavailability peaks and valleys and achieve a prolonged time period where concentration of the formulation fluctuates in a narrow range. Another key objective is to lengthen the time period where the drug concentration remains above a target minimum concentration required for desired effectiveness.
As used herein, the term “half-life period” refers to the time period in which the initial concentration of a drug in the plasma is reduced by 50%.
As used herein, the term “effective plasma concentration time period” refers to a period of time during which an active agent is present in the plasma at an effective plasma concentration.

[8] = TCP postural hypotension: SBP drop from sitting to standing position; details: for Average Postural SBP Drop: sitting to standing
[9] = tested on: tyramine pressor effect; details: with TCP; Pare et al., 1982; cited from earlier work

CCOc1ccccc1OC(c1ccccc1)C1CNCCO1 (centres unmarked) [reboxetine]
effect on labelled tyramine levels in rat heart [1]: block the increased levels of labelled tyramine which accumulate in rat heart when given before TCP
half-life ([2]; plasma, elimination): 13 h

CNCCCC1c2ccccc2C=Cc2ccccc21 [protriptyline]
half-life ([2]; plasma, elimination): 60 to 90 h

NCCc1ccc(O)cc1 [tyramine]
reduction in AUC with food, average [3]: 53%
reduction of Cmax with food, on average [3]: 72%
in-meal tyramine dose producing 30 mm SBP increase relative to fasting oral dose ([4]; Gillman, 2011): 2 to 4 times

CNCCCN1c2ccccc2CCc2ccccc21 [desipramine]
reduction of sensitivity to TYR, average factor (increase of TYR dose which increases systolic blood pressure 30 mm Hg) ([4]; 100 mg dose of desipramine, Chalon et al. 2003): 5 fold
half-life ([2]; plasma, elimination): 12 to 30 h and 21 h

CNCC[C@@H](Oc1ccccc1C)c1ccccc1 [atomoxetine]
half-life ([2]; among extensive metabolizers): approximately 5 hours
half-life ([2]; among slow metabolizers): over 10 hours

NNCCc1ccccc1 [Phenelzine, phenelzine]
SBP increase with 40 mg of in-meal tyramine ([5]; PHZ without or with NRI: desipramine 100 mg): 12.1 mm HG
reduction of fasting tyramine dose giving 30 mm Hg SBP increase ([4]; PHZ 60 mg, Bieck and Antonin, 1989): 13 fold
fasting tyramine dose which results in a 30 mm Hg increase in systolic blood pressure ([4]; PHZ 60 mg, without drug 437 mg, Bieck and Antonin, 1989): 33 mg
half-life ([2]; plasma, elimination): approximately 11.6 hours

CNCCC=C1c2ccccc2CCc2ccccc21 [nortriptyline]
relationship between Tyramine-relative response and blood concentration ([6]; FIG. 2): tyramine tolerance increases as the blood concentration of nortriptyline increases
relation of tyramine sensitivity to plasma concentration ([6]; depressed patients treated with amitriptyline, Ghose and Coppen, 1977): decrease in tyramine sensitivity correlated with plasma concentrations of nortriptyline
Tyramine pressor effect ([6]; in the presence of the NRI, Freyschuss et al., 1970): much more reduced

C#CCN(C)[C@H](C)Cc1ccccc1 [Selegiline]
Average SBP increase [5]: 4.2 mm HG
half-life ([2]; plasma, elimination): approximately 10 hours

N[C@@H]1C[C@H]1c1ccccc1 (racemic) [TCP, tranylcypromine]
Average SBP increase [5]: 50.0 mm HG
SBP increase with 40 mg of in-meal tyramine ([5]; TCP without or with NRI: desipramine 100 mg): 50 mm HG
time plasma concentration stays above minimum threshold of 25 ng/ml ([7]; 40 mg TCP dose, not extended release): 9 h
average Cmax ([7]; TCP dose of 40 mg/d, immediate release formulation): approximately 230 ng/ml
Average Concentration ([7]; 1 to 5 hours since dosing): 59.8 ng/mL
Average Concentration ([7]; 7 to 10 hours since dosing): 17.5 ng/mL
highest drop in postural systolic blood pressure ([8]; immediate release formulation): approximately 25 mm HG
Average Postural SBP Drop ([8]; 1 to 5 hours since dosing): 9.6 mm HG
Average Postural SBP Drop ([8]; 7 to 10 hours since dosing): 3.4 mm HG

CN(C)CCC=C1c2ccccc2CCc2ccccc21 [amitriptyline]
effect on sensitivity to intravenous tyramine [9]: reversed the increase in sensitivity to intravenous tyramine associated with administration of TCP
